Test results: paper PMC4669685, “Peptides derived from the dependence receptor ALK are proapoptotic for ALK-positive tumors” (Cell Death & Disease, 2015)
Where a SMILES comes first, the peptide text is derived from it. The star is where a group is joined. Myristoyl = CCCCCCCCCCCCCC(=O)*

Experiments:
Format in all cases: cell-based, human
[1] = test system: Cost ALCL cells (NPM–ALK); experiment: Cell viability assay (CellTiterGlo, ATP content); details: increasing doses, 48 h
Experimental: (§1) At the end of incubation, cell viability was assessed by measuring the ATP content of wells using the luminescence-based CellTiterGlo assay (Promega) with a Berthold Mithras (http://www.berthold.com) plate reader. Each culture condition was assayed in triplicate.

[2] = test system: SH-SY5Y neuroblastoma cells (ALK-F1174L); experiment: Cell viability assay (CellTiterGlo, ATP content); details: increasing doses, 48 h
Experimental: as §1

caspase 3 in Cost cells = experiment: Western blot of caspase 3 cleavage; details: Cost cells treated 6 h; P36 10 μM, doxorubicin 2 μM; compared with culture medium
Experimental: Cells were washed once with PBS, pelleted, and extracted in RIPA buffer (150 mM NaCl, 20 mM Tris-HCl, pH 7.7, 4 mM EDTA, 0.5% Triton X-100) containing 10 μg/ml leupeptin, 2 μg/ml aprotinin, 1 mM 4-2-aminoethyl-benzenesulfonyl fluoride, 1 mM sodium orthovanadate, and 4 mM sodium fluoride for 30 min on ice. Cell extracts were either centrifuged at 10 000 × g for 20 min at 4 °C and the supernatant recovered, or sonicated for better extraction of nuclear proteins. The protein content was quantified using the Bio-Rad (www.biorad.com) Bradford protein assay. For western blotting, total cell proteins were subjected to SDS-polyacrylamide gel electrophoresis (SDS-PAGE) in a 4–12% bis/tris acrylamide (Novex NuPAGE, Invitrogen) gradient gel using the Nupage system with Mops SDS buffer under reducing conditions and transferred for 3 h at 60 V onto a nitrocellulose membrane. The blots were hybridized with the following primary antibodies:
ZAL4 anti-human ALK rabbit monoclonal antibody (1/200, Invitrogen), phospho-ALK (Y1604) (1/1000, #3341, Cell Signaling Technology, www.cellsignal.com) rabbit antiserum, mouse monoclonal anti-caspase 3 (1/200, sc-7148, Santa Cruz Biotechnologies, www.scbt.com), rabbit polyclonal anti-p53 (1/500, #554167, BD Pharmingen, www.bdbiosciences.com) and rabbit polyclonal anti-GAPDH (1/2000, Millipore, www.millipore.com) antibodies. […]

SMILES	effect on cell viability (cytotoxicity) [1]	effect on cell viability (cytotoxicity) [2]	caspase 3 cleavage (western blot) (caspase 3 in Cost cells)
CCCCCCCCCCCCCC(=O)N[C@@H](CC(=O)O)C(=O)N[C@@H](Cc1ccc(O)cc1)C(=O)N[C@@H](CC(N)=O)C(=O)N1CCC[C@H]1C(=O)N[C@@H](CC(N)=O)C(=O)N[C@@H](Cc1ccc(O)cc1)C(=O)N[C@@H](CS)C(=O)N[C@@H](Cc1ccccc1)C(=O)N[C@@H](C)C(=O)NCC(=O)N[C@@H](CCCCN)C(=O)N[C@H](C(N)=O)[C@@H](C)O [P12-1] (Myristoyl-DYNPNYCFAGKT-NH2)	no effect	–	–
CCCCCCCCCCCCCC(=O)N[C@@H](CO)C(=O)N[C@@H](CO)C(=O)N[C@H](C(=O)N[C@@H](CO)C(=O)N[C@@H](CC(=O)O)C(=O)N[C@@H](CC(C)C)C(=O)N[C@@H](CCCCN)C(=O)N[C@@H](CCC(=O)O)C(=O)N[C@H](C(=O)N1CCC[C@H]1C(=O)N[C@@H](CCCNC(=N)N)C(=O)N[C@@H](CCCCN)C(N)=O)C(C)C)[C@@H](C)CC [P12-3] (Myristoyl-SSISDLKEVPRK-NH2)	dose-dependent cytotoxicity	–	–
CCCCCCCCCCCCCC(=O)N[C@@H](CCCCN)C(=O)N[C@@H](CCC(=O)O)C(=O)N[C@H](C(=O)N1CCC[C@H]1C(=O)N[C@@H](CCCNC(=N)N)C(=O)N[C@@H](CCCCN)C(=O)N[C@@H](CC(N)=O)C(=O)N[C@H](C(=O)N[C@H](C(=O)N[C@@H](CC(C)C)C(=O)N[C@H](C(=O)N[C@@H](CCCNC(=N)N)C(N)=O)[C@@H](C)CC)[C@@H](C)O)[C@@H](C)CC)C(C)C [P12-4] (Myristoyl-KEVPRKNITLIR-NH2)	no effect	–	–
CCCCCCCCCCCCCC(=O)N[C@@H](CC(N)=O)C(=O)N[C@H](C(=O)N[C@H](C(=O)N[C@@H](CC(C)C)C(=O)N[C@H](C(=O)N[C@@H](CCCNC(=N)N)C(=O)NCC(=O)N[C@@H](CC(C)C)C(=O)NCC(=O)N[C@@H](Cc1c[nH]cn1)C(=O)NCC(=O)N[C@@H](C)C(N)=O)[C@@H](C)CC)[C@@H](C)O)[C@@H](C)CC [P12-5] (Myristoyl-NITLIRGLGHGA-NH2)	dose-dependent cytotoxicity	–	–
CCCCCCCCCCCCCC(=O)N[C@@H](CCC(=O)O)C(=O)NCC(=O)N[C@@H](CC(C)C)C(=O)N[C@@H](CC(C)C)C(=O)N[C@@H](Cc1ccccc1)C(=O)N[C@H](C(=O)N[C@@H](Cc1ccc(O)cc1)C(=O)N[C@@H](Cc1c[nH]cn1)C(=O)N[C@H](C(=O)N[C@H](C(=O)N[C@@H](CCCCN)C(=O)N[C@@H](CCCNC(=N)N)C(=O)N[C@@H](CC(=O)O)C(=O)N[C@@H](Cc1ccc(O)cc1)C(=O)NCC(=O)N[C@@H](CC(N)=O)C(=O)N[C@@H](CC(N)=O)C(=O)N[C@@H](CC(C)C)C(=O)N[C@@H](C)C(=O)N[C@@H](CC(=O)O)C(=O)N[C@@H](CO)C(=O)N[C@H](C(=O)NCC(=O)N1CCC[C@H]1C(=O)NCC(=O)N[C@@H](CC(N)=O)C(=O)N[C@H](C(=O)N[C@@H](CO)C(=O)N[C@@H](C)C(=O)N1CCC[C@H]1C(=O)N[C@@H](CO)C(=O)N[C@H](C(=O)N[C@@H](CS)C(=O)N[C@@H](CCCCN)C(=O)N[C@@H](CCCNC(=N)N)C(=O)N[C@@H](CCCCN)C(N)=O)[C@@H](C)CC)[C@@H](C)O)[C@@H](C)CC)[C@@H](C)O)C(C)C)[C@@H](C)CC [P36scr] (Myristoyl-EGLLFIYHVTKRDYGNNLADSIGPGNTSAPSICKRK-NH2)	failed to affect	failed to affect	–
COc1cccc2c1C(=O)c1c(O)c3c(c(O)c1C2=O)C[C@@](O)(C(=O)CO)C[C@@H]3O[C@H]1C[C@H](N)[C@H](O)[C@H](C)O1 [doxorubicin]	–	–	increased caspase 3 cleavage
